Patent US20100035823A1, “LIGANDS OF SH3 DOMAINS” (ALBERT EINSTEIN COLLEGE OF MEDICINE OF YESHIVA UNIVERSITY, priority 2005, published 2010)
Read-outs that look alike come from different tables or passages of the source. Where a SMILES comes first, the peptide text is derived from it. [ ]: non-standard residue; d: D form. The star is where a group is joined. FITC = O=C1OC2(c3ccc(O)cc3Oc3cc(O)ccc32)c2ccc(NC(=S)*)cc21; Benzoyl(2,3-diOH) = O=C(c1cccc(O)c1O)*; Nicotinoyl(2-OH) = O=C(c1cccnc1O)*; Nspe = C[C@H](NCC(=O)O)c1ccccc1; X1 = O=C([C@H](O)c1ccccc1)*; Dap = NC[C@H](N)C(=O)O; Ahx = NCCCCCC(=O)O

Experiments:
Assay type in all cases: binding
[1] = target: T1, Fyn SH3 domain (Fyn SH3-GST fusion protein) (Homo sapiens, UniProt P06241); test: Determination of Kd values by equilibrium dialysis (fluorescence), Fyn SH3 domain; settings: for Kd: Fyn SH3 domain; for Selectivity among Src family SH3 domains (in words): Fyn versus other Src kinase family SH3 domains; for Enhancement in Fyn SH3 affinity relative to parent peptide 9: ratio of KD values versus acetylated derivative 9
T1 construct: The GST-SH3 fusion proteins, Fyn (85-139) and Lck (54-120); purchased Santa Cruz Biotechnology
T1 sequence (P06241 85-139): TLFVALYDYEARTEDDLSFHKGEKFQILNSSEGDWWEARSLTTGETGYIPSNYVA
Method: Determination of Kd Values. […] Therefore, the KD values for the SH3 complexes of these species were determined via equilibrium dialysis. All samples were prepared in buffer containing TBS and 1 mM DTT at pH 7.5. Slide-A-Lyzer dialysis slide cassette (0.1-0.5 mL capacity) was employed and contained 30 nM or 500 nM Fyn SH3-GST fusion proteins. The cassettes (400 μL final volume) were placed in a beaker containing a volume of buffer solution (TBS and 1 mM DTT at pH 7.5) that was at least 400-fold greater than that of the sample volume in the dialysis cassette. As a consequence, concentrations of non-SH3-bound peptide were held constant in the dialysis slide cassette over the course of the experiment. Equilibrium dialysis experiments were performed over a period of at least 16 hr and maintained at 4°C. Differences in the fluorescence between the solution in the slide cassette and that in the beaker were measured. The excitation wavelength employed for the peptides were 328 nm. Emission was monitored at 378 nm. The Kd values were calculated from the following equation for fluorescent peptides 8a, 11a, 14 and 7, where [E]t=total enzyme concentration; [E·L]=enzyme-peptide complex; [L]=free peptide concentration.
For non-fluorescent peptide 9, the following equation was used for the determination of Kd′:
Where Kd=the dissociation constant of competition fluorescent peptide, [L′]=total lion-fluorescent peptide concentration, [L]=total competitive fluorescent peptide concentration, [E]t=total SH3 domain concentration; [E·L]=enzyme-peptide (fluorescent competitive peptide) complex concentration.

[2] = target: T2, Fyn SH3-GST fusion protein (Homo sapiens, UniProt P06241); test: Competition ELISA against microwell-bound biotinylated peptoid 6; settings: competition with biotinylated peptoid 6, read-out: IC50 (relative affinity) in ELISA assay
T2 construct: The GST-SH3 fusion proteins, Fyn (85-139) and Lck (54-120); purchased Santa Cruz Biotechnology
T2 sequence (P06241 85-139): as above
Method: We employed Arg-Ala-Leu-Pro-Pro-Leu-Pro as the starting point for Fyn SH3 ligand optimization, a sequence that is consistent with most known SH3 domain-binding elements. We initially introduced diversity elements on the N-terminus of this peptide to furnish Library I (FIG. 2). The 720 individual members of this library were subsequently assessed for SH3 binding potency via an ELISA-based screen. The latter was performed in parallel using streptavidin-coated 96 well plates. A biotinylated-peptide SH3-directed ligand was appended to the individual wells and a GST-SH3 domain fusion protein was subsequently introduced. Competition between members of the library and the microwell-bound biotinylated peptide ligand determined the extent to which the GST-SH3 protein was retained by the individual wells after washing. The latter was quantified using an anti-GST-peroxidase fusion construct. The assay is dependent upon a strong binding interaction between the GST-SH3 domain and the biotinylated peptide ligand associated with the streptavidin-coated well. […]
Screening of the Peptide/Nonpeptide Conjugate Library. […] 100 μL of 1M sulfuric acid solution was introduced to stop the peroxidase reaction and absorbance was measured at 450 nm with a plate reader. […]

[3] = target: Src SH3 domain (Homo sapiens, UniProt P12931); test: Determination of Kd values by equilibrium dialysis (fluorescence), Src SH3 domain; settings: read-out: Dissociation constant (KD), Src
[4] = target: T3, Lck SH3 domain (Homo sapiens, UniProt P06239); test: Determination of Kd values by equilibrium dialysis (fluorescence), Lck SH3 domain; settings: read-out: Dissociation constant (KD), Lck
T3 construct: The GST-SH3 fusion proteins, Fyn (85-139) and Lck (54-120); GST; purchased Santa Cruz Biotechnology
T3 sequence (P06239 54-120): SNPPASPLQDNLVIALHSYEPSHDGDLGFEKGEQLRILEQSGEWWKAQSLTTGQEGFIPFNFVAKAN

[5] = target: T4, Hck SH3 domain (Homo sapiens, UniProt P08631); test: Determination of Kd values by equilibrium dialysis (fluorescence), Hck SH3 domain; settings: read-out: Dissociation constant (KD), Hck
T4 construct: particularly with respect to the SH3 domains from Lck and Hck
T4 sequence (P08631 78-138 limits assumed): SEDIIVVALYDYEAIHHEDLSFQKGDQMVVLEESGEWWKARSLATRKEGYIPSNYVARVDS

[6] = target: Yes SH3 domain (Homo sapiens, UniProt P07947); test: Determination of Kd values by equilibrium dialysis (fluorescence), Yes SH3 domain; settings: read-out: Dissociation constant (KD), Yes
Chain of Yes SH3 domain (P07947 91-152 limits assumed): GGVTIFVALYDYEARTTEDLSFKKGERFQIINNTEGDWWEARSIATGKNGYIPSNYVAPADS

[7] = equilibrium dialysis, 4°C, pH 7.5, read-out: Dissociation constant (KD), Fyn

Kd ([1]; values in nM, read-out: KD for the Fyn SH3 domain) [nM]	IC50 [2] [nM]	Kd [3] [nM]	Kd [4] [nM]	Kd [5] [nM]	Kd [1, 7] [nM]	Enhancement in Fyn SH3 affinity relative to parent peptide 9 [1] [fold]	Kd [6] [nM]	Selective affinity for Fyn versus SH3 domains from other Src kinase family members ([1]; Fyn versus Lck, Src, Yes, Hck SH3 domains) [fold]	Structure (SMILES)	Selectivity among Src family SH3 domains (in words) [1]
230 ± 30	–	–	–	–	–	–	–	–	CC(C)C[C@H](NC(=O)[C@@H]1CCCN1C(=O)[C@@H]1CCCN1C(=O)[C@H](C)NC(=O)[C@H](Cc1ccc(O)cc1)NC(=O)CCCCCNC(=O)CCCCCNC(=S)Nc1ccc2c(c1)C(=O)OC21c2ccc(O)cc2Oc2cc(O)ccc21)C(=O)N(CC(=O)N1CCC[C@H]1C(=O)N[C@@H](CCCNC(=N)N)C(=O)N[C@@H](CC(N)=O)C(=O)N[C@@H](CCCNC(=N)N)C(=O)N1CCC[C@H]1C(=O)N[C@@H](CCCNC(=N)N)C(=O)N[C@@H](C)C(N)=O)[C@@H](C)c1ccccc1 [Ligand 7] ({FITC-Ahx-Ahx}-YAPPL[Nspe]PRNRPRA-NH2)	little selectivity versus other members of the Src kinase family
–	15000	2500 ± 200	5300 ± 400	5100 ± 700	1200 ± 200	~15	2700 ± 300	–	CC(C)C[C@H](NC(=O)[C@@H]1CCCN1C(=O)[C@@H]1CCCN1C(=O)[C@H](CC(C)C)NC(=O)[C@H](C)NC(=O)[C@H](CCCNC(=N)N)NC(=O)c1cccnc1O)C(=O)N1CCC[C@H]1C(N)=O [Ligand 8a] ({Nicotinoyl(2-OH)}-RALPPLP-NH2)	some selectivity in favor of Fyn
–	–	370 ± 50	590 ± 80	620 ± 70	110 ± 30	> 100	380 ± 140	–	CC(C)C[C@H](NC(=O)[C@@H]1CCCN1C(=O)[C@@H]1CCCN1C(=O)[C@H](CC(C)C)NC(=O)[C@H](C)NC(=O)[C@H](CCCNC(=N)N)NC(=O)c1cccnc1O)C(=O)N1CCC[C@H]1C(=O)N[C@@H](CNC(=O)c1cccc(O)c1O)C(N)=O [Ligand 11a] ({Nicotinoyl(2-OH)}-RALPPLP[Dap](Benzoyl(2,3-diOH))-NH2)	slight improvement in selectivity for the Fyn SH3 domain relative to Lck and Hck
–	–	230 ± 40	270 ± 30	260 ± 30	25 ± 5	–	190 ± 20	10	CC(C)C[C@H](NC(=O)[C@@H]1CCCN1C(=O)[C@@H]1CCCN1C(=O)[C@H](CC(C)C)NC(=O)[C@H](CNC(=O)[C@H](O)c1ccccc1)NC(=O)[C@H](CCCNC(=N)N)NC(=O)c1cccnc1O)C(=O)N1CCC[C@H]1C(=O)N[C@@H](CNC(=O)c1cccc(O)c1O)C(N)=O [Ligand 14] ({Nicotinoyl(2-OH)}-R[Dap](X1)LPPLP[Dap](Benzoyl(2,3-diOH))-NH2)	–
